The experiment deals with T1, Hsp90β (Homo sapiens, UniProt P08238).
T1 construct: gene HSP90AB1; recombinant Hsp90β purified from baculovirus infected Sf9 cells
In words: SPR, immobilized Hsp90β, binding curve fit (kinetic Kd […]). (In SPR one partner is held on a chip, and binding of the other changes the refractive index at the surface.)

Experimental findings from article PMC3240935, “Development and characterization of a novel C-terminal inhibitor of Hsp90 in androgen dependent and independent prostate cancer cells” (2011) are described below.

T1 sequence (P08238 2-724): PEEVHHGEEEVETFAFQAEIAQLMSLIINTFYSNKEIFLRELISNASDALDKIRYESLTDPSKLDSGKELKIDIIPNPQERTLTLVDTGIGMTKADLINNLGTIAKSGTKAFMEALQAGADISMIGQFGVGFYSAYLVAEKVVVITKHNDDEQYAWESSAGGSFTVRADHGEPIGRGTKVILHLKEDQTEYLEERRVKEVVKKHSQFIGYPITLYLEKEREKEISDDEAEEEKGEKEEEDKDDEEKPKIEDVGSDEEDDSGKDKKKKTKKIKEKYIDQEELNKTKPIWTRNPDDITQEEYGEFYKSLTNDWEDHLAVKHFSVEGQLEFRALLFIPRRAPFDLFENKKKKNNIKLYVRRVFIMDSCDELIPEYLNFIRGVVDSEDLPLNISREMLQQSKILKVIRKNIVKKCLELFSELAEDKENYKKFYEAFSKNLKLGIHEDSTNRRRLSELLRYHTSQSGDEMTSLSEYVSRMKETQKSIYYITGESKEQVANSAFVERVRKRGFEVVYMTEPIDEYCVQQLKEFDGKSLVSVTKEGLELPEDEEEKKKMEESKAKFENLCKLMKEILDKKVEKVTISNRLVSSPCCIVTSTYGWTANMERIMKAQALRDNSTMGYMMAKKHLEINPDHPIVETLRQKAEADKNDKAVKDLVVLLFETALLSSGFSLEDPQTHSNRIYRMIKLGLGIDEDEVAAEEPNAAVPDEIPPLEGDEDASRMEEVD

KU174: binding was characterised by a dissociation constant (Kd) of 78 µM.
